Ends that are not written are not given here. 5,6‑TAMRA = 5,6-carboxytetramethylrhodamine fluorescent label at the N-terminus
Columns and labels:
Assay type in all cases: cell-based
[1] = system: WT-hSOD1-GFP-expressing NSC-34 cells; assay: Cell survival (methylene blue assay) under rotenone or low-glucose challenge, WT-hSOD1-GFP cells
Experimental: (§1) The functional significance of the loss of such interaction was assessed by alleviation of the rotenone (a mitochondrial inhibitor) or low-glucose challenge in NSC-34 clones expressing an inducible form of the mutant G93A SOD1-GFP as monitored by cell survival. The […] (SEQ ID NO: 1) peptide was synthesized (SBS Gentech Beijing) with 5,6-TAMRA modification (to allow detection) at the N-terminus. The TAMRA-modified peptide was dissolved in 10% acetic acid and added to cell culture medium in culture medium containing 1% ethanol. Thus, 15,000 cells (WT-hSOD1 or G93A-hSOD1) seeded in each well of a 96-well plate in DMEM, 10% serum. 24 hours later, cells were incubated with 1*10^-6M cytMDH peptide (or acetic acid/ethanol vehicle) for 4 h without serum. 1-10 micromole/L Rotenone in DMEM, 10% serum was then added for 24 hours, or medium replaced with low glucose (1 mg/ml) in DMEM with 5% serum for 72 hours. Cell survival was then assessed. It was expected that if the identified peptide interaction is resolving the gain of toxic interaction of G93A SOD1-GFP, then survival of the cells upon rotenone- or low-glucose challenge will improve.
(§2) 15,000 cells (WT-hSOD1 or G93A-hSOD1) were seeded in each well of a 96 well-plate in DMEM, 10% serum. 24 hours later, the cells were incubated with 3 mM octanoic acid with and without 1-10 micromole/L rotenone in DMEM, 10% serum for 24 hours. Or, cells were incubated with 3 mM octanoic acid and medium replaced with regular ([…]) or low (1 mg/ml) glucose in DMEM with 5% serum for 72 hours. Cell survival was then assessed. It was expected that if the gain of toxic interaction of G93A SOD1-GFP is due to inhibition of the malate-aspartate shuttle, octanoic acid will provide an alternative energy source through the alternative shunt and the survival of the cells upon rotenone or low-glucose challenge will improve.
(§3) Cell survival was assessed by the methylene blue assay. Cells were fixed with 4% formaldehyde solution for 1 h, then washed with 0.1M sodium borate buffer pH8.5, stained with 1% methylene blue for 20 min and washed with water. Cell-bound dye was eluted with 200 μl of 0.1M HCl. The optical density was assessed at 595 nm in ELISA plate reader.
(§4) The […] (SEQ ID NO: 1) peptide was synthesized (SBS Gentech Beijing) with 5,6-TAMRA modification (to allow detection) at the N-terminus, dissolved in 10% acetic acid, and diluted in cell culture medium containing 1% ethanol. Thus, 15,000 cells (WT-hSOD1 or G93A-hSOD1) seeded in each well of 96 wells plate in DMEM, 10% serum and doxycline (to induce expression of the hSOD1 proteins). 24 hours later, medium was replaced with serum free DMEM, and cells were incubated with 1 micromol/liter of the TAMRA-labeled […] peptide or vehicle (1% acetic acid/ethanol) for 4 hours. […] Cell survival was then assessed.

[2] = system: G93A-hSOD1-GFP-expressing NSC-34 cells; assay: Cell survival (methylene blue assay) under rotenone or low-glucose challenge, G93A-hSOD1-GFP cells
Experimental: as §1, §2, §3, §4

[3] = molecular target: T1, G93A-hSOD1/cytMDH complex (Homo sapiens, UniProt P00441, G94A); assay: FACS-based FRET test of peptides competing for the G93A-hSOD1-CFP/cytMDH-YFP interaction in co-transfected NSC-34 cells; settings: myc-tagged peptide expression plasmid co-transfected at 1:1:1 ratio, excitation 405 nm, emission 530 nm
T1 construct: expressed in transfected cells; host or cells: NSC-34 cells (transient co-transfection)
Text: The screening method was based on the fluorescence resonance energy transfer (FRET) system between cyan fluorescence protein (CFP) chimera proteins and yellow fluorescence protein (YFP) chimera proteins. The present inventors designed and used this system to identify the specific interaction of G93A SOD1 with MDH1 so as to identify a motif within MDH1 that is critical for the G93A SOD1-MDH1 interaction. The agents tested were peptides derived from MDH1.
A Myc-tagged peptide library expressing small fragments of the MDH1 was prepared. MDH1 cDNA was digested with AluI or/and DpnI and the fragments were cloned so that each peptide was placed in the correct reading frame of the original protein and in frame to the human myc tag sequence. G93A SOD1-CFP and MDH1-YFP expression plasmids were transfected into NSC-34 cells with and without the myc-tagged library.
The hypothesis is that the specific MDH1-derived peptides comprising the interacting motif will compete with MDH1 for the G93A SOD1-MDH1 interaction site. In such case, the CFP and YFP fluorescence of the G93A SOD1-CFP and MDH1-YFP will still be present, but the FRET signal will be diminished. The screening studies were performed using a cell sorter (FACS) with 405 nm excitation laser and a 530/30 nm emission filter. […] RNA was extracted from the sorted cells, converted into cDNA and subjected to PCR amplification in order to amplify the peptides DNA sequences.
The DNA sequence from the sorted cells was re-cloned. Four clones were obtained, one corresponding to amino acids 14-27 of the cytMDH protein GQIAHSLLYSIGNG (SEQ ID NO: 2) and three corresponding to amino acids 217-239 of the cytMDH protein […] (SEQ ID NO: 1). The identified clones were re-analyzed in the FACS-based system to verify their ability to compete for the G93A SOD1-MDH1 interaction at 1:1:1 ratio levels. Thus, 5*10^6 NSC-34 cells were transfected with equal amounts of G93A-hSOD1-CFP and cytMDH-YFP and the suspected myc-tagged cytMDH peptide-expressing plasmids.
Ability of the 217-239 peptide to disrupt the G93A-hSOD1-cytMDH1 complex was tested by co-transfection into NSC-34 cells of constructs encoding myc-tagged 217-239 and the FRET-enabled G93A-hSOD1/cytMDH proteins, followed by FACS analysis to measure FRET.

T1 sequence (P00441 2-154 G94A limits assumed, one chain of several): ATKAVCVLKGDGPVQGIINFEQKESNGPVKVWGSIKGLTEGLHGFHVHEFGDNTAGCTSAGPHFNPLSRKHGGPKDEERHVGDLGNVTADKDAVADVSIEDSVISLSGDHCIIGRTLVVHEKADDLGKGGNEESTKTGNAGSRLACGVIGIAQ

Row | Molecule | effects of low glucose on cell viability in the presence of octanoic acid ([1]; 3 mM octanoic acid, low (1 mg/ml) glucose DMEM, 5% serum, 72 h, WT-hSOD1-GFP cells) | effects of rotenone on cell viability in the presence of octanoic acid ([1]; 3 mM octanoic acid, rotenone 1.25 micromol/liter for 24 h, WT-hSOD1-GFP cells) | effects of low glucose on cell viability in the presence of octanoic acid ([2]; 3 mM octanoic acid, low (1 mg/ml) glucose DMEM, 5% serum, 72 h, G93A-hSOD1-GFP cells) | effects of rotenone on cell viability in the presence of octanoic acid ([2]; 3 mM octanoic acid, rotenone 1.25 micromol/liter for 24 h, G93A-hSOD1-GFP cells) | FRET signal of G93A-hSOD1-CFP/cytMDH-YFP (disruption of the complex) [3] | FRET signal of G93A-hSOD1-CFP/cytMDH-YFP (disruption of the complex) ([3]; listed as peptide 14-27) | FRET signal of G93A-hSOD1-CFP/cytMDH-YFP (disruption of the complex) ([3]; listed as SEQ ID NO: 1) | FRET signal of G93A-hSOD1-CFP/cytMDH-YFP (disruption of the complex) ([3]; listed as peptide 217-239) | effects of rotenone on cell viability in the presence of peptide ([1]; 1 micromol/liter TAMRA-labeled peptide 4 h, then 0.5 micromol/L rotenone 24 h, WT-hSOD1-GFP cells) | effects of low glucose on cell viability in the presence of peptide ([1]; 1 micromol/liter TAMRA-labeled peptide, low glucose (1 mg/ml) DMEM, 5% serum, 72 h, WT-hSOD1 cells) | effects of rotenone on cell viability in the presence of peptide ([2]; 1 micromol/liter TAMRA-labeled peptide 4 h, then 0.5 micromol/L rotenone 24 h, G93A-hSOD1-GFP cells) | effects of low glucose on cell viability in the presence of peptide ([2]; 1 micromol/liter TAMRA-labeled peptide, low glucose (1 mg/ml) DMEM, 5% serum, 72 h, G93A-hSOD1 cells)
1 | CCCCCCCC(=O)O [octanoic acid, reference compound] | not | not | greatly diminished | greatly diminished |  |  |  |  |  |  |  | 
2 | GQIAHSLLYSIGNG (listed as Mus musculus) [14-27 peptide] |  |  |  |  | found not to inhibit the interaction | positive FRET |  |  |  |  |  | 
3 | SWLKGEFITTVQQRGAAVIKARK ({5,6‑TAMRA}-SWLKGEFITTVQQRGAAVIKARK; listed as Mus musculus) [217-239 peptide, amino acids 217-239 of the cytMDH protein] |  |  |  |  | blocked FRET |  | prevented the FRET | negative FRET | not | not | greatly diminished | significantly diminished

Source: patent US8461297B2, “Cytoplasmic malate dehydrogenase (MDH1) targeted treatment for neurodegenerative diseases” (Ramot at Tel-Aviv University, Ltd., priority 2007, dated 2013)
